Results as given in ChEMBL document CHEMBL5233270, “DYRK1A Inhibitors as Potential Therapeutics for β-Cell Regeneration for Diabetes” (J Med Chem, 2021).

What was measured:
[1] = Induction of human Pancreatic beta cell proliferation at 50 mg/kg measured after 5 days in presence of EdU incorporation by Cell-Titer Glo assay; assay type: functional; settings: 120 h
[2] = Induction of rat Pancreatic beta cell proliferation at 1 uM assessed as increase in fold chain after 6 days in presence of EdU incorporation by Cell-Titer Glo assay; assay type: functional; settings: time 6 day
[3] = biological target: Glycogen synthase kinase-3 beta (Homo sapiens, UniProt P49841); assay: Inhibition of GSK3beta (unknown origin)
[4] = Selectivity ratio of CC50 for mouse R7T1 cells to ECmin for mouse pancreatic islet cells; assay type: toxicity; settings: R7T1 cells (CC50) and pancreatic islet cells (ECmin)
[5] = Cytotoxicity against mouse R7T1 cells assessed as reduction in cell viability; assay type: functional
[6] = Volume of distribution at steady state in mouse, po; assay type: ADME; settings: in vivo
[7] = biological target: Dual specificity protein kinase CLK1/CLK2/CLK4 (Homo sapiens) (UniProt Q9HAZ1+P49759+P49760); assay: Inhibition of CLK1/2/4 (unknown origin) relative to control; assay type: protein assay; settings: concentration not given here
[8] = AUC (0 to infinity) in mouse at 1 mg/kg, po; assay type: ADME, organism-based; design: dose 1 mg/kg, route po; settings: in vivo
[9] = Synergistic […] activity against human Pancreatic beta cell proliferation in NSG mouse model at 0.5 ug/kg by immuno labelling assay; assay type: functional
[10] = Synergistic […] activity against human Pancreatic beta cell proliferation in presence of GLP1 at 5 nM by Ki-67 immuno labelling assay; assay type: functional

Sequence of Dual specificity protein kinase CLK1/CLK2/CLK4 (Homo sapiens) (P49759 whole entry, looked up): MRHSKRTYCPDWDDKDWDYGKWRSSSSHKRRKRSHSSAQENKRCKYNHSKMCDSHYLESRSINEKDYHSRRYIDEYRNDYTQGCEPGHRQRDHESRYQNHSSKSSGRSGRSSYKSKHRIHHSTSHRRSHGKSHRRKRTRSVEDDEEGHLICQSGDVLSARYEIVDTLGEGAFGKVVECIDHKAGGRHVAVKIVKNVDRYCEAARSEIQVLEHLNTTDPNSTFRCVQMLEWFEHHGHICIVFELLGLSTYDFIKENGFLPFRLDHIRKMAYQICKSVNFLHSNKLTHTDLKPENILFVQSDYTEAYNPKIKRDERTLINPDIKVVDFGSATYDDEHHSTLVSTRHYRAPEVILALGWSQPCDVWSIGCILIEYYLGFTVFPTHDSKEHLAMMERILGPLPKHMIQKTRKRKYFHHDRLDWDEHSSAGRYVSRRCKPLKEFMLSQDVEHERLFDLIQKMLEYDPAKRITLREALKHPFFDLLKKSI
Sequence of Dual specificity protein kinase CLK1/CLK2/CLK4 (Homo sapiens) (P49760 whole entry, looked up): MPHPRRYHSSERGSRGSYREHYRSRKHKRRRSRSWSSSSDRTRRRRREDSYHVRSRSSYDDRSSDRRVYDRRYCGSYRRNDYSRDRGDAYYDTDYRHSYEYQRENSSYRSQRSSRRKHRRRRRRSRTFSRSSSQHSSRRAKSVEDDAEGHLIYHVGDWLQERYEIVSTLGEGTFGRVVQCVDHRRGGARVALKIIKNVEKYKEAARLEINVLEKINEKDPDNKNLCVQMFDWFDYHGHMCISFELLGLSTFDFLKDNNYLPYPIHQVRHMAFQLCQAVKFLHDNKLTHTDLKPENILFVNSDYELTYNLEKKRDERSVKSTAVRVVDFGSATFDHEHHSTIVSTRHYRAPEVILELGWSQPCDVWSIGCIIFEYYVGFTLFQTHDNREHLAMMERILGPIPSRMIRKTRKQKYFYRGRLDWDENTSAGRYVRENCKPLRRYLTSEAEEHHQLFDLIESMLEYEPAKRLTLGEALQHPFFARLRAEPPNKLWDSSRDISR
Sequence of Dual specificity protein kinase CLK1/CLK2/CLK4 (Homo sapiens) (Q9HAZ1 whole entry, looked up): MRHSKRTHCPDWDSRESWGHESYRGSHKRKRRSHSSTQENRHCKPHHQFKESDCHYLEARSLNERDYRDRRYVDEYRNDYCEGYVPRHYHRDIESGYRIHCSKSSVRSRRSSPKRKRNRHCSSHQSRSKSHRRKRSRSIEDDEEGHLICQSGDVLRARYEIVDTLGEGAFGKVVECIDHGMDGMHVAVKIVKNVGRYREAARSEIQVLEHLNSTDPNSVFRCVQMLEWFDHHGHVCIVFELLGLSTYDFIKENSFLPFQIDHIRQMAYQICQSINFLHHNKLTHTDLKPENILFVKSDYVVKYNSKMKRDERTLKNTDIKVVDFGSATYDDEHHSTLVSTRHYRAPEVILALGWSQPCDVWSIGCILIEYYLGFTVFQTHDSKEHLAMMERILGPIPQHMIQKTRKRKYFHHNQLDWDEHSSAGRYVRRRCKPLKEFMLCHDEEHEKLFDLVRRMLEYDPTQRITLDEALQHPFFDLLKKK
Sequence of Glycogen synthase kinase-3 beta (P49841 whole entry): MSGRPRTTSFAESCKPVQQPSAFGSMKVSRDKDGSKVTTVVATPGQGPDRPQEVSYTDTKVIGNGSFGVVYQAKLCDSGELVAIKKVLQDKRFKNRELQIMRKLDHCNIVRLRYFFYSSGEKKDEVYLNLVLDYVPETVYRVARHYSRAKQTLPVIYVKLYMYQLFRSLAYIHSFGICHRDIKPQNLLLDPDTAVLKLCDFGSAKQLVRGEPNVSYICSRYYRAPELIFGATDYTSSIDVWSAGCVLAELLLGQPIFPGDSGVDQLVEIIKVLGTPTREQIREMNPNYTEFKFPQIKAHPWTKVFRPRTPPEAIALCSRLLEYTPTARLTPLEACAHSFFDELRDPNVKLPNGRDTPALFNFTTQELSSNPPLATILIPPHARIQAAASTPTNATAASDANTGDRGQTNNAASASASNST

SMILES: Nc1ncc(-c2ccccc2)nc1C(=O)Nc1cnccc1N1CCC(C(=O)O)CC1
- EC50 [1]: 0.76 nM

SMILES: Nc1ncnc2c1c(I)cn2[C@@H]1O[C@H](CO)[C@@H](O)[C@H]1O [IODOTUBERCIDIN]
- fold change (FC) [2]: 10

SMILES: COc1ccc2c(c1)[nH]c1c(CO)nccc12
- IC50 [3]: > 8300 nM

SMILES: CCOC(=O)c1cnc2ccc(-c3ccncc3)nc2c1N[C@H]1CC[C@H](CN2CCOCC2)CC1
- selectivity ratio [4]: 143
- Emin [5]: 3.3 nM

SMILES: CCN1CCN(C(=O)Nc2cc(-c3cn(C4CCOCC4)c4cnccc34)ccn2)CC1
- Vdss [6]: 11 L/kg
- inhibition [7]: 90%
- AUC [8]: 3.27 µM·h

SMILES: CCOC(=O)c1cnc2ccc(-c3cc(Cl)c(O)c(Cl)c3)nc2c1NC1CCN(C)CC1
- selectivity ratio [4]: 117
- Emin [5]: 10 nM

SMILES: CC(C)Oc1ccc(F)c(-c2cnc(N)c(C(=O)Nc3cnccc3N3CCCC(C(=O)O)C3)n2)c1 (centres undefined)
- Emin [5]: <100 nM

SMILES: CCOC(=O)c1cnc2ccc(-c3ccncc3)nc2c1N[C@H]1CC[C@H](CN(C)C)CC1
- selectivity ratio [4]: 259

SMILES: COc1ccc2c(c1)[nH]c1c(C)nccc12 [HARMINE]
- Activity [9]: 0.8%
- Activity [10]: 5%
